Assay results taken from US20230203095A1, “BIOLOGICAL PEPTIDE FOR TREATING LUNG DISEASES AND APPLICATION THEREOF” (SHANGHAI INSTITUTE OF PHARMACEUTICAL INDUSTRY CO., LTD., priority 2019, published 2023).
Several values for one entry are separate records, joined by “and”; a condition that tells them apart may be missing. Equal entries are not always repeated. Where two headings read alike, the source gives them in different places.

Legend:
COPD model rats = experiment: Lung function (200 ms pulmonary ventilation) in smoking + LPS COPD model rats; type: in vivo, SD rats; details: 5 mg/kg body weight/day, aerosol, once a day for 4 weeks
serum IgE = experiment: Serum IgE level in OVA-induced allergic asthma model mice; type: in vivo, BALB/c mice; details: days 19-28, n=10
Experimental: (§1) The first batch: mice were divided into groups, 10 mice in each group, namely: blank control group (normal saline), model group (OVA, 20 ug/mouse), SP peptide group (administered dose of 175 µg/kg body weight/day, 350 µg/kg body weight/day, respectively), SIPI-D00 peptide group (administered dose of 175 µg/kg body weight/day, 350 µg/kg body weight/day), and dexamethasone group (administered dose of 2 mg/kg body weight/day).
OVA for sensitization was dissolved in sterile PBS solution at a final concentration of 0.2 mg/mL, then an equal volume of aluminum hydroxide adjuvant was added. After shaking for 30 minutes, each mouse was intraperitoneally injected with 0.2 mL (20 µg OVA per mouse).
2% OVA solution was prepared in sterile PBS. The 2% OVA was nebulized with a nebulizer, and the mice were placed in the nebulizer inhalation box for 30 minutes per day.
According to the dosage, SP peptide and SIPI-D00 were dissolved in normal saline respectively, and administered by subcutaneous administration on the back according to the body weight of the animals.
(§2) Mice in the model group, SP peptide group, SIPI-D00 peptide group and dexamethasone group were sensitized by intraperitoneal injection of OVA (20 µg OVA/mice) on day 0, 7, and 14, and challenged by aerosol administration of OVA (once a day for 5 consecutive days) on day 21-25 to construct asthmatic model animals. Mice in the model group were given normal saline on days 21-28; mice in different doses of SP peptide group and SIPI-D00 peptide group were injected subcutaneously with different doses of SP and SIPI-D00 on days 19-28; mice in dexamethasone group were injected intraperitoneally with 2 mg/kg/day dexamethasone on days 21-28. At the same time, 10 mice in the blank control group were fed normally from day 0 to day 28 without any treatment, and were given normal saline as a blank control.
After 28 days, blood was collected from the inner canthus of the mouse, and the serum was collected, and the IgE level in the serum was measured with an ELISA kit. […]
(§3) At the same time, 10 mice in the blank control group were fed normally from day 0 to day 28 without any treatment, and were given normal saline as a blank control.

[1] = Stability of each 7-peptide compound in rat whole blood; type: in vitro ADME; details: rat whole blood, 37° C., 1000 ng/mL, read-out: Recovery rate (%) M±SD
Experimental: Preparation of the test product: SP and SIPI-D00 were dissolved and diluted with an appropriate amount of 50% acetonitrile water containing 0.1% formic acid to obtain a working solution with a concentration of 200 µg/mL.
• 1) Fresh rat whole blood was added to the EP tube, and shaken gently to mix well; • 2) The EP tube was pre-incubated in a 37° C. water bath for 5 minutes; • 3) Each compound was added to start the reaction and continued to incubate at 37° C.; • 4) 50 µL sample was taken from the sample tube at 0, 2 min, 5 min, 10 min, 30 min, and 60 min, respectively, into the stop tube, 50 µL of ice-cold 7% perchloric acid was added, and shaken to stop the reaction; • 5) Sample was centrifuged at 13000 r/min for 10 min, 75 µL supernatant was aspirated, 60 µL1.25% ammonia water was added and mixed well. After filtered with […] microporous membrane, 20 µL sample was taken for LC-MS/MS analysis.

[2] = test system: ConA-stimulated mouse splenocytes; experiment: Secretion of IL-4 from mouse splenocytes stimulated by ConA (ELISA); type: cell-based, BALB/C mice; details: for IL-4 levels of polypeptides: ConA 5 µg/mL, 24 h
Experimental: (§4) Three BALB/C mice were sacrificed by cervical dislocation after anesthesia. Then mice were immersed in 75% ethanol for 5 minutes. After dissection and spleen extraction, spleen lymphocytes were prepared. […] Different concentrations of test substances were added to each well, and duplicate wells were set for each concentration, and the final concentration of ConA was 5 µg/mL. The plate was incubated in a 37° C. 5% CO2 incubator for 24 h, the drug-containing cell suspension was aspirated from each well, then centrifuged at 200 g for 15 min at 4° C. The supernatant was taken, and mouse IL-4 Elisa kit was used to detect IL- 4 content.
as §4, with “each concentration was” for “duplicate wells were”, “up as triple wells,” for “for each concentration,”, “kit (mouse IL-4 Elisa kit)” for “kit”

[3] = test system: OVA-induced asthma model mice; experiment: Lung pathology (H&E) of OVA-induced asthma model mice; type: in vivo, BALB/c mice; details: after 28 days
Experimental: as §1, §2
After 28 days, the mouse lung tissue was taken out, fixed in 4% formaldehyde, embedded in paraffin, sectioned, and stained with H&E for pathological observation.
The first batch: mice were divided into groups, 10 mice in each group, namely: blank control group (normal saline), model group (OVA, 20 ug/mice), and SP peptide group (administered dose of 175 µg/kg body weight/day, 350 µg/kg body weight/day, respectively), SIPI-G5 peptide group (administered dose of 175 µg/kg body weight/day, 350 µg/kg body weight/day), dexamethasone group (administered dose of 2 mg/kg body weight/day).
as §3

[4] = Plasma drug concentrations and pharmacokinetics after a single subcutaneous injection of SP peptide or SIPI-D00 peptide in SD rats; type: in vivo
Experimental: Route: Single back subcutaneous injection;
Dosage of the drug: SP peptide and SIPI-D00 peptide were prepared into 3.33 mg/mL solution with normal saline, the dosage of SP peptide by back subcutaneous injection was 10 mg/kg body weight, and the dosage of SIPI-D00 peptide by back subcutaneous injection was 5 mg/kg body weight. […]

CCCC1O[C@@H]2C[C@H]3[C@@H]4CCC5=CC(=O)C=C[C@]5(C)[C@H]4[C@@H](O)C[C@]3(C)[C@]2(C(=O)CO)O1 (some centres unmarked) [Budesonide, budesonide]
200 ms pulmonary ventilation (COPD model rats): 77.17 ± 11.20 mL | Percentage of 200 ms pulmonary ventilation (%) (COPD model rats): 465.8±77.8 %

H-GQTYTSG-OH [SP, GQTYTSG, reference compound]
Serum IgE level (OD450) (serum IgE; 175 ug/kg/day subcutaneous): 0.634 ± 0.078 OD450 and 0.634 + OD450 | Serum IgE level (OD450) (serum IgE; 350 ug/kg/day subcutaneous): 0.595 ± 0.041 OD450 and 0.595 + OD450 | recovery ([1]; incubation time 0 min): 100% | recovery ([1]; incubation time 2 min): 64.1 ± 7.6% | recovery ([1]; incubation time 5 min): 41.3 ± 6.8% | recovery ([1]; incubation time 10 min): 28.5 ± 0.9% | recovery ([1]; incubation time 30 min): 4.93 ± 0.7% | recovery ([1]; incubation time 60 min): 1.67 ± 0.5% | Inhibitory rate of polypeptide on IL-4 secretion ([2]; peptide concentration 1 µg/mL): 33.90% | IL-4 levels of polypeptides ([2]; peptide concentration 1 µg/mL): 14.28 ± 0.51 pg/mL | Inhibitory rate of polypeptide on IL-4 secretion ([2]; peptide concentration 3 µg/mL): 42.51% | IL-4 levels of polypeptides ([2]; peptide concentration 3 µg/mL): 12.42 ± 0.34 pg/mL | Inhibitory rate of polypeptide on IL-4 secretion ([2]; peptide concentration 10 µg/mL): 50.21% | IL-4 levels of polypeptides ([2]; peptide concentration 10 µg/mL): 10.76 ± 2.55 pg/mL | Inhibitory rate of polypeptide on IL-4 secretion ([2]; peptide concentration 30 µg/mL): 52.15% | IL-4 levels of polypeptides ([2]; peptide concentration 30 µg/mL): 10.34 ± 0.27 pg/mL | lung pathology, H&E ([3]; high-dose group (350 µg/kg body weight/day)): some inflammatory cells are found in the airway mucosa | lung pathology, H&E ([3]; low-dose group (175 µg/kg body weight/day)): some inflammatory cells are found in the airway mucosa | Plasma concentration ([4]; SP peptide 10 mg/kg s.c., SD rats, time 0 min, parallels 1-4): 0 ng/mL | level at 0.5 min ([4]; male, SD, rat, plasma, sc, 10 mg/kg, SP peptide 10 mg/kg s.c., SD rats, time 0.5 min, parallels 1-4, read-out: Plasma concentration): 74.2 ng/mL | AUC(0-inf) ([4]; rat, in vivo, sc, 10 mg/kg): 11.9 ng·h/mL | AUC(0-t) ([4]; rat, in vivo, sc, 10 mg/kg): 11.9 ng·h/mL | Cmax ([4]; rat, in vivo, sc, 10 mg/kg): 210 ± 21.6 ng/mL | half-life ([4]; rat, in vivo, sc, 10 mg/kg): 8.65 ± 1.79 min
